We go through 77 compounds from publication PMC7731220, “Pharmacophore Modeling and 3D-QSAR Study of Indole and Isatin Derivatives as Antiamyloidogenic Agents Targeting Alzheimer’s Disease” (Molecules, 2020).

Structures are written as SMILES.

For the first test, the target named is T1, Aβ40 (Homo sapiens, UniProt P05067).
T1 sequence (P05067 672-711 limits assumed): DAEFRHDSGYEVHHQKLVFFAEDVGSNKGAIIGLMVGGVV
Experiment: not given
As to conditions: supplement, training set; 100 µM; cited from earlier work.
`O=C1C(/C=N/Nc2ccc(Cl)cc2)=Nc2ccccc21` [Compound S13]: the “% inhib. @ 100 µM” value was 33±1.0%.

In the case of `COc1ccc2c(c1)/C(=N/Nc1cccc(Cl)c1)C(=O)N2` [Compound S26], the “% inhib. @ 100 µM” value is listed as 72±1%.

In the case of `Cc1ccc(NNC=C2C(=O)c3ccccc3C2=O)cc1` [Compound S2], the “% inhib. @ 100 µM” value is recorded as 44±4.0%. With `O=C1Nc2ccccc2/C1=N/Nc1ccccc1Cl` [Compound S53], the “% inhib. @ 100 µM” value is given as 44±5%. Consider `COc1ccc2c(c1)/C(=N/Nc1ccc(C(C)(C)C)cc1)C(=O)N2` [Compound S30], for which the “% inhib. @ 100 µM” value was 66±4%. Turning to `O=C1Nc2cc(Cl)c(F)cc2/C1=N/Nc1ccc(Cl)cc1` [Compound S43], the “% inhib. @ 100 µM” value is 28±3.7%. Take `O=C1Nc2ccc(O)cc2/C1=N/Nc1ccc(O)cc1` [Compound S50]: the “% inhib. @ 100 µM” value is given as 61±2%.

Turning to `COc1ccc2c(c1)/C(=N/Nc1cccc(C(C)(C)C)c1)C(=O)N2` [Compound S32], the “% inhib. @ 100 µM” value was 56±2%. Regarding `O=C1C(/C=N/Nc2ccc(Cl)c(Cl)c2)=Nc2ccc(Br)cc21` [Compound S20], the “% inhib. @ 100 µM” value is recorded as 23±2.3%.

As to `O=C1Nc2ccc([N+](=O)[O-])cc2/C1=N/Nc1ccc(Cl)cc1` [Compound S45], the “% inhib. @ 100 µM” value is on record as 12±2%. As to `O=C1Nc2ccccc2/C1=N/Nc1ccc(OC(F)(F)F)cc1` [Compound S62], the “% inhib. @ 100 µM” value is on record as 57±3%. Regarding `O=C1Nc2ccccc2/C1=N/Nc1cccc(F)c1` [Compound S42], the “% inhib. @ 100 µM” value is recorded as 52±0.9%. Turning to `O=C1Nc2ccccc2/C1=N/Nc1ccc(Cl)cc1` [Compound S61], the “% inhib. @ 100 µM” value is 24±4.9%.

On to `O=C1Nc2ccccc2/C1=N/Nc1cccc([N+](=O)[O-])c1` [Compound S63], for which the “% inhib. @ 100 µM” value is 29±1.2%. Take `O=C1C(/C=N/Nc2ccc(Cl)cc2)=Nc2ccc(Br)cc21` [Compound S19]: the “% inhib. @ 100 µM” value was 46±7.0%. Consider `COc1ccc2c(c1)/C(=N/Nc1ccc(C)cc1)C(=O)N2` [Compound S28], for which the “% inhib. @ 100 µM” value is 29±4%. Take `COc1cc2c(cc1OC)/C(=N/Nc1ccccc1Cl)C(=O)N2` [Compound S37]: the “% inhib. @ 100 µM” value was 70±3%. Regarding `O=C1C(=CNNc2ccccc2)C(=O)c2ccccc21` [Compound S1], the “% inhib. @ 100 µM” value is given as 49±2.0%. As for `O=C1Nc2ccccc2/C1=N/Nc1cccc(Cl)c1` [Compound S60], the “% inhib. @ 100 µM” value is on record as 39±5%. For `O=C1Nc2ccc(O)cc2/C1=N/Nc1ccccc1` [Compound S47], the “% inhib. @ 100 µM” value was 62±3%. Consider `COc1ccc2c(c1)/C(=N/Nc1ccc(Cl)cc1)C(=O)N2` [Compound S27], for which the “% inhib. @ 100 µM” value was 43±2%. As to `CC(C)c1ccc(N/N=C2\C(=O)Nc3ccccc32)cc1` [Compound S64], the “% inhib. @ 100 µM” value is reported as 64±4%. `O=c1c(=NNc2ccc(Cl)cc2)c(=O)c2ccccc12` [Compound S7]: the “% inhib. @ 100 µM” value is reported as 38±5.3%. On to `O=C1Nc2ccc(Br)cc2/C1=N/Nc1ccc(Cl)cc1` [Compound S44], for which the “% inhib. @ 100 µM” value is recorded as 63±4%.

The same test, now with this note: supplement, training set; 100 µM; ± SD; cited from earlier work.
Take `CC(C)c1ccc(N/N=C2\C(=O)Nc3c(Br)cccc32)cc1` [Compound S80]: the “% inhib. @ 100 µM” value was 1±9.3%.

The same test, now with this note: supplement, training set; cited from earlier work.
For the compound `O=C1C(/C=N/Nc2cccc(Cl)c2)=Nc2ccccc21` [Compound S12], the IC50 is 2.5 µM. Turning to `O=C1Nc2ccc(O)cc2/C1=N/Nc1cccc(Cl)c1` [Compound S48], the concentration for half-maximal inhibition (IC50) was 18 µM. On to `O=C1Nc2cc(O)c(O)cc2/C1=N/Nc1ccc(O)cc1` [Compound S59], for which the IC50 is 24 µM. In the case of `Cc1ccc(N/N=C/C2=Nc3ccccc3C2=O)cc1` [Compound S9], the IC50 is 3.6 µM.

For the compound `CC(C)c1ccc(N/N=C2\C(=O)Nc3ccc(O)cc32)cc1` [Compound S49], the IC50 is 21 µM.

Turning to `COc1cc2c(cc1OC)/C(=N/Nc1ccccc1)C(=O)N2` [Compound S25], the IC50 was 63 µM. `Cc1ccc(N/N=C/C2=Nc3ccc(Br)cc3C2=O)cc1` [Compound S15]: the IC50 is 51 µM.

As to `COc1ccc2c(c1)/C(=N/Nc1cccc3ccccc13)C(=O)N2` [Compound S87], the IC50 is 28 µM. Take `O=C1Nc2cc(O)c(O)cc2/C1=N/Nc1ccc(Cl)cc1` [Compound S57]: the half-inhibitory concentration (IC50) is 17 µM.

With `CC(C)c1ccc(N/N=C2\C(=O)Nc3cc(O)c(O)cc32)cc1` [Compound S58], the 50% inhibitory concentration (IC50) is 1.6 µM. `COc1ccc2c(c1)/C(=N/N=C/c1ccc(C(C)C)cc1)C(=O)N2` [Compound S89]: the IC50 was 6.7 µM. With `COc1cc2c(cc1OC)/C(=N/Nc1cccc(Cl)c1)C(=O)N2` [Compound S38], the IC50 was 17 µM.

Consider `COc1cc2c(cc1OC)/C(=N/Nc1ccc(Cl)cc1)C(=O)N2` [Compound S39], for which the IC50 was 33 µM. On to `COc1ccc2c(c1)/C(=N/Nc1ccc(C(C)(C)C)cc1)C(=O)N2` [Compound S30], for which the IC50 is 15 µM.

With `COc1ccc2c(c1)/C(=N/Nc1nc(CCl)cs1)C(=O)N2` [Compound S67], the IC50 is 13 µM. As to `O=C1C(=CNNc2ccccc2Cl)C(=O)c2ccccc21` [Compound S4], the IC50 is 32 µM. Take `Oc1ccc2[nH]cc(/C=N/Nc3ccc(Cl)cc3)c2c1` [Compound S92]: the IC50 is 21 µM. Regarding `O=C1Nc2cc(O)c(O)cc2/C1=N/Nc1ccccc1Cl` [Compound S55], the IC50 is 11 µM.

Regarding `O=C1Nc2cc(O)c(O)cc2/C1=N/Nc1ccccc1` [Compound S54], the IC50 was 4.3 µM. On to `COc1cc2c(cc1OC)/C(=N/Nc1ccc(C(C)C)cc1)C(=O)N2` [Compound S40], for which the IC50 is 4.4 µM. As to `CC(C)c1ccc(N/N=C2\C(=O)Nc3cc(O)ccc32)cc1` [Compound S52], the IC50 was 6 µM.

Take `COc1ccc2c(c1)/C(=N/Nc1nc(-c3cccc(Br)c3)cs1)C(=O)N2` [Compound S72]: the IC50 was 40 µM.

As for `COc1ccc2c(c1)NC(=O)/C2=N\Nc1ccc(C(C)C)cc1` [Compound S36], the IC50 was 7.1 µM. Consider `COc1ccc(N/N=C2\C(=O)Nc3ccccc32)cc1` [Compound S21], for which the IC50 is 13 µM. On to `COc1ccc(N/N=C2\C(=O)Nc3cc(OC)c(OC)cc32)cc1` [Compound S41], for which the IC50 is 22 µM. With `O=C1Nc2ccccc2/C1=N/Nc1ccc(O)cc1` [Compound S46], the IC50 was 9.3 µM.

On to `CC(C)c1ccc(N/N=C/C2=Nc3ccccc3C2=O)cc1` [Compound S10], for which the IC50 was 1.4 µM. Take `COc1ccc2c(c1)/C(=N/N(C)c1ccc(C(C)C)cc1)C(=O)N2C` [Compound S73]: the half-maximal inhibitory concentration (IC50) was 11 µM. Turning to `COc1ccc2c(c1)/C(=N/N=C/c1cccc(Cl)c1)C(=O)N2` [Compound S90], the IC50 is 11 µM.

Turning to `O=C1C(/C=N/Nc2cccc(Cl)c2)=Nc2ccc(Br)cc21` [Compound S18], the IC50 is 4.4 µM. With `O=C1C(=CNNc2cccc(Cl)c2)C(=O)c2ccccc21` [Compound S5], the half-inhibitory concentration (IC50) was 18 µM. As to `O=C1Nc2cc(O)ccc2/C1=N/Nc1ccccc1` [Compound S51], the IC50 was 22 µM.

With `CC(C)c1ccc(N/N=C/C2=Nc3ccc(Br)cc3C2=O)cc1` [Compound S16], the half-inhibitory concentration (IC50) was 23 µM. As to `O=C1C(/C=N/Nc2ccccc2Cl)=Nc2ccccc21` [Compound S11], the IC50 is 13 µM. Turning to `COc1cccc(-c2csc(N/N=C3\C(=O)Nc4ccc(OC)cc43)n2)c1` [Compound S71], the IC50 is 34 µM. Consider `COc1ccc(N/N=C2\C(=O)Nc3ccc(OC)cc32)cc1` [Compound S33], for which the IC50 is 3.7 µM. Consider `O=C1C(/C=N/Nc2ccccc2Cl)=Nc2ccc(Br)cc21` [Compound S17], for which the IC50 is 7.8 µM. Regarding `CC(C)c1ccc(NNC=C2C(=O)c3ccccc3C2=O)cc1` [Compound S3], the concentration for half-maximal inhibition (IC50) was 18 µM. As for `COc1ccc2c(c1)/C(=N/Nc1nc(-c3cccc(O)c3)cs1)C(=O)N2` [Compound S70], the IC50 is 16 µM. Consider `O=C1C(=CNNc2ccc(Cl)cc2)C(=O)c2ccccc21` [Compound S6], for which the IC50 is 23 µM. For the compound `O=C1C(/C=N/Nc2ccccc2)=Nc2ccc(Br)cc21` [Compound S14], the IC50 is 35 µM.

The same test, now with this note: supplement; 100 µM; value marked (II); cited from earlier work.
Take `O=C1Nc2ccccc2/C1=N/Nc1ccccc1` [Compound S31]: the “% inhib. @ 100 µM (II)” value is given as 61±0.7%.

The next test deals with T1, Aβ40. As to the kind of experiment: Inhibition of Aβ40 self-aggregation (thioflavin T fluorescence, 2% HFIP).
Conditions: not given
As for `CC(C)c1ccc(NN=Cc2c[nH]c3ccccc23)cc1` [Compound 28, 3-((2-(4-Isopropylphenyl)hydrazono)methyl)-1H-indole], the IC50 is 18 ± 2 µM.

`Clc1cccc(N/N=C/c2c[nH]c3ccccc23)c1` [Compound 30] returned an IC50 of 13 ± 2 µM. Still for that read-out and setting: next, `Clc1c(C=NNc2ccccc2)[nH]c2ccc(Br)cc12` [Compound 40, 5-Bromo-3-chloro-2-((2-phenylhydrazineylidene)methyl)-1H-indole]: 25 ± 3 µM. Turning to `COc1ccc2c(c1)C(=O)C(=O)N2CCCc1ccccc1` [Compound 12], the IC50 stood at 19 ± 4 µM.

Staying with this test, now noted: read-out: Aβ40 Aggregation Inhibition % at 100 μM.
As for `CC1(C)OC(=O)C(C=C2Nc3ccccc3C2=O)C(=O)O1` [Compound 44], the inhibition at 100 µM was found to be 44 ± 1%.

For the compound `COc1ccc2[nH]cc(C=NNc3ccc(C#N)cc3)c2c1` [Compound 29, 4-(2-((5-Methoxy-1H-indol-3-yl)methylene)hydrazineyl)benzonitrile], the inhibition at 100 µM is 56 ± 1%. The same measure, in the same setting: next, `COc1ccc2[nH]cc(/C=N/NC(=O)c3ccc(F)cc3)c2c1` [Compound 45]: 0%; `COc1ccc2[nH]cc(C=NNc3ccccn3)c2c1` [Compound 34, 5-Methoxy-3-((2-(pyridin-2-yl)hydrazineylidene)methyl)-1H-indole]: 20 ± 2%. Same read-out and setting: next, `COc1ccc2c(c1)C(=O)C(=O)N2Cc1ccccc1` [Compound 10]: 52 ± 1%; `CC(C)c1ccc(NN=C2C(=O)N(C3CC3)c3ccc(O)cc32)cc1` [Compound 20, 1-Cyclopropyl-5-hydroxy-3-(2-(4-isopropylphenyl)hydrazono)indolin-2-one]: 26 ± 3%.

Regarding `O=C1Nc2ccccc2C1=NNc1cccc2cccnc12` [Compound 25, 3-(2-(Quinolin-8-yl)hydrazineylidene)indolin-2-one], the inhibition at 100 µM turned out to be 63 ± 5%.

The term IC50 denotes the concentration that inhibits the measured activity by half. By inhibition is commonly meant the share of the control response that was lost under treatment.
